Reference: patent US4068070A, “α-Cyanoamine compounds and a process for producing the same” (Fuji Chemical Industry Co., Ltd., priority 1974, dated 1978)

Columns and labels:
Format in all cases: in vivo, mongrel adult dogs
coronary sinus out flow = experiment: Effects on coronary sinus out flow
Method in brief: (§1)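 Readouts: aortic pressure by transducer through carotid cannula, aortic root flow electromagnetically, coronary sinus flow and oxygen tension through Morawitz cannulation. Subjects were anesthetized (pentobarbital) open-chest adult mongrel dogs of either sex given intravenous test compound or active placebo.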

heart rate = experiment: Effects on heart rate
Method in brief: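 Adult mongrel dogs of both sexes were anesthetized with pentobarbital and thoracotomized. Test agents, suspended or dissolved in 0.2% CMC, pH 6 HCl solution or saline, were injected intravenously into the brachial vein. Hemodynamic and coronary sinus parameters were then recorded.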

[1] = tested on: arterial mean blood pressure; experiment: Effects on arterial mean blood pressure
Method in brief: as §1

COc1ccc(C(C#N)N2CCN(CC=Cc3ccccc3)CC2)cc1OC (stereo not shown) [Compound D]
Changes(%) of basal values, coronary sinus out flow (coronary sinus out flow; 2.0 mg/kg i.v., 1 min): +1.6% | Changes(%) of basal values, coronary sinus out flow (coronary sinus out flow; 2.0 mg/kg i.v., 5 min): -3.1% | Changes(%) of basal values, coronary sinus out flow (coronary sinus out flow; 2.0 mg/kg i.v., 10 min): -1.0% | Changes(%) of basal values, coronary sinus out flow (coronary sinus out flow; 2.0 mg/kg i.v., 20 min): 0% | Changes(%) of basal values, coronary sinus out flow (coronary sinus out flow; 2.0 mg/kg i.v., 30 min): 0% | Changes(%) of basal values, coronary sinus out flow (coronary sinus out flow; 2.0 mg/kg i.v., 40 min): 0% | Changes(%) of basal values, coronary sinus out flow (coronary sinus out flow; 2.0 mg/kg i.v., imm.): +6.2% | Changes(%) of basal values, coronary sinus out flow (coronary sinus out flow; 6.0 mg/kg i.v., 1 min): +9.1% | Changes(%) of basal values, coronary sinus out flow (coronary sinus out flow; 6.0 mg/kg i.v., 5 min): -0.2% | Changes(%) of basal values, coronary sinus out flow (coronary sinus out flow; 6.0 mg/kg i.v., 10 min): -0.4% | Changes(%) of basal values, coronary sinus out flow (coronary sinus out flow; 6.0 mg/kg i.v., 20 min): -0.2% | Changes(%) of basal values, coronary sinus out flow (coronary sinus out flow; 6.0 mg/kg i.v., 30 min): 0% | Changes(%) of basal values, coronary sinus out flow (coronary sinus out flow; 6.0 mg/kg i.v., 40 min): 0% | Changes(%) of basal values, coronary sinus out flow (coronary sinus out flow; 6.0 mg/kg i.v., imm.): +23.0% | Changes(%) of basal values, coronary sinus out flow (coronary sinus out flow; 20.0 mg/kg i.v., 1 min): +49.3% | Changes(%) of basal values, coronary sinus out flow (coronary sinus out flow; 20.0 mg/kg i.v., 5 min): +9.1% | Changes(%) of basal values, coronary sinus out flow (coronary sinus out flow; 20.0 mg/kg i.v., 10 min): +8.4% | Changes(%) of basal values, coronary sinus out flow (coronary sinus out flow; 20.0 mg/kg i.v., 20 min): +8.0% | Changes(%) of basal values, coronary sinus out flow (coronary sinus out flow; 20.0 mg/kg i.v., 30 min): +5.7% | Changes(%) of basal values, coronary sinus out flow (coronary sinus out flow; 20.0 mg/kg i.v., 40 min): +3.0% | Changes(%) of basal values, coronary sinus out flow (coronary sinus out flow; 20.0 mg/kg i.v., imm.): +66.2% | Effects on coronary sinus out flow (in words) (coronary sinus out flow; i.v., anesthetized dogs): a marked increasing effect on coronary sinus out flow, which was proportioned to doses thereof and of long duration | Changes(%) of basal values, heart rate (heart rate; 2.0 mg/kg i.v., 1 min): +1.0% | Changes(%) of basal values, heart rate (heart rate; 2.0 mg/kg i.v., 5 min): 0% | Changes(%) of basal values, heart rate (heart rate; 2.0 mg/kg i.v., 10 min): 0% | Changes(%) of basal values, heart rate (heart rate; 2.0 mg/kg i.v., 20 min): 0% | Changes(%) of basal values, heart rate (heart rate; 2.0 mg/kg i.v., 30 min): 0% | Changes(%) of basal values, heart rate (heart rate; 2.0 mg/kg i.v., 40 min): 0% | Changes(%) of basal values, heart rate (heart rate; 2.0 mg/kg i.v., imm.): -0.6% | Changes(%) of basal values, heart rate (heart rate; 6.0 mg/kg i.v., 1 min): +1.5% | Changes(%) of basal values, heart rate (heart rate; 6.0 mg/kg i.v., 5 min): -0.9% | Changes(%) of basal values, heart rate (heart rate; 6.0 mg/kg i.v., 10 min): -1.6% | Changes(%) of basal values, heart rate (heart rate; 6.0 mg/kg i.v., 20 min): -1.0% | Changes(%) of basal values, heart rate (heart rate; 6.0 mg/kg i.v., 30 min): -0.5% | Changes(%) of basal values, heart rate (heart rate; 6.0 mg/kg i.v., 40 min): 0% | Changes(%) of basal values, heart rate (heart rate; 6.0 mg/kg i.v., imm.): -1.5% | Changes(%) of basal values, heart rate (heart rate; 20.0 mg/kg i.v., 1 min): -3.1% | Changes(%) of basal values, heart rate (heart rate; 20.0 mg/kg i.v., 5 min): -3.5% | Changes(%) of basal values, heart rate (heart rate; 20.0 mg/kg i.v., 10 min): -3.9% | Changes(%) of basal values, heart rate (heart rate; 20.0 mg/kg i.v., 20 min): -2.8% | Changes(%) of basal values, heart rate (heart rate; 20.0 mg/kg i.v., 30 min): -1.3% | Changes(%) of basal values, heart rate (heart rate; 20.0 mg/kg i.v., 40 min): -0.5% | Changes(%) of basal values, heart rate (heart rate; 20.0 mg/kg i.v., imm.): -14.5% | Effects on heart rate (in words) (heart rate; i.v., anesthetized dogs): a slight negative chronotropic effect | Changes (%) of basal values, arterial mean blood pressure ([1]; 2.0 mg/kg i.v., 1 min): +1.6% | Changes (%) of basal values, arterial mean blood pressure ([1]; 2.0 mg/kg i.v., 5 min): -3.0% | Changes (%) of basal values, arterial mean blood pressure ([1]; 2.0 mg/kg i.v., 10 min): -1.5% | Changes (%) of basal values, arterial mean blood pressure ([1]; 2.0 mg/kg i.v., 20 min): -0.5% | Changes (%) of basal values, arterial mean blood pressure ([1]; 2.0 mg/kg i.v., 30 min): 0% | Changes (%) of basal values, arterial mean blood pressure ([1]; 2.0 mg/kg i.v., 40 min): 0% | Changes (%) of basal values, arterial mean blood pressure ([1]; 2.0 mg/kg i.v., imm.): -13.6% | Changes (%) of basal values, arterial mean blood pressure ([1]; 6.0 mg/kg i.v., 1 min): -9.7% | Changes (%) of basal values, arterial mean blood pressure ([1]; 6.0 mg/kg i.v., 5 min): -10.3% | Changes (%) of basal values, arterial mean blood pressure ([1]; 6.0 mg/kg i.v., 10 min): -10.0% | Changes (%) of basal values, arterial mean blood pressure ([1]; 6.0 mg/kg i.v., 20 min): -6.0%
